{"source": "ChEMBL document CHEMBL1137055", "about": "“Pyrazolo[1,5-a]pyrimidines as estrogen receptor ligands: defining the orientation of a novel heterocyclic core” (Bioorg Med Chem Lett, 2004)", "key": {"[1]": {"biological_target": "Estrogen receptor beta (Homo sapiens) (UniProt Q92731)", "sequence (Q92731 whole entry)": "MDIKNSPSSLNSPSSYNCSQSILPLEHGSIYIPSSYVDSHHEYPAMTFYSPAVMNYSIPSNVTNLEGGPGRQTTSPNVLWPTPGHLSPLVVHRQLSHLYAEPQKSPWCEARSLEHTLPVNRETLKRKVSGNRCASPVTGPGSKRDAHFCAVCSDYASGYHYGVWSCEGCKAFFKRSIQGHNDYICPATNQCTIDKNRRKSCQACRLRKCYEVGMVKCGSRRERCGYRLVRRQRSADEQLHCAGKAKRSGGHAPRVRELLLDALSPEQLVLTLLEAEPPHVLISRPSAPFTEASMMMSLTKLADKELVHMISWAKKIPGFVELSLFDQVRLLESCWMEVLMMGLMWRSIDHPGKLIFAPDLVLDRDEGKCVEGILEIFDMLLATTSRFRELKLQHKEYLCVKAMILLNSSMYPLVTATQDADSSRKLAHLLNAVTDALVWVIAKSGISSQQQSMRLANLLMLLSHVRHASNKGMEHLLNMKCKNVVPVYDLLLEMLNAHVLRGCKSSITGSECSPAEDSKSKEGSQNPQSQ", "assay": "Binding affinity for Estrogen receptor beta compared to estradiol (100%)"}, "[2]": {"biological_target": "T1, Estrogen receptor (Homo sapiens) (UniProt P03372)", "T1 sequence (whole entry)": "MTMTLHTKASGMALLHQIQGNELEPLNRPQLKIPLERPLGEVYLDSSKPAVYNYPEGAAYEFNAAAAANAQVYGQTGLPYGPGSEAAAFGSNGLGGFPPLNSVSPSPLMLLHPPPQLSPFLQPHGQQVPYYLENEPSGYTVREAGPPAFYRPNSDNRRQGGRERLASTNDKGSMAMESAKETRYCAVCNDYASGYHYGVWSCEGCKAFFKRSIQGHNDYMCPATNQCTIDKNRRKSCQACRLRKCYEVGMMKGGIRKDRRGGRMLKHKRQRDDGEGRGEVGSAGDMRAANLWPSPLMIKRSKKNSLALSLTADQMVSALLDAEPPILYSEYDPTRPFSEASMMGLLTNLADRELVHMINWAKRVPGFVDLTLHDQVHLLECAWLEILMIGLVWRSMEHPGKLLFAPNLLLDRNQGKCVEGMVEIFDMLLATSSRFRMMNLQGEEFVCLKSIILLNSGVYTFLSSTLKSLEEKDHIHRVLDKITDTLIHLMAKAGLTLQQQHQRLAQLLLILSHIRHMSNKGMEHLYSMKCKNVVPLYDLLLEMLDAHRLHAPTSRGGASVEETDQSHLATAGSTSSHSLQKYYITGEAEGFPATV", "assay": "Binding affinity for Estrogen receptor alpha compared to estradiol (100%)"}}, "data": [{"smiles": "Oc1ccc(-c2c(-c3ccccc3)nn3cccnc23)cc1", "values": [{"measurement": "Binding affinity", "setting": "[1]", "value": 0.02, "unit": "%"}, {"measurement": "Binding affinity", "setting": "[2]", "value": 0.007, "unit": "%"}]}, {"smiles": "Oc1cnc2c(-c3ccccc3)c(-c3ccccc3)nn2c1", "values": [{"measurement": "Binding affinity", "setting": "[1]", "value": 0.005, "unit": "%"}]}, {"smiles": "Oc1ccc(-c2nn3cc(O)cnc3c2-c2ccc(O)cc2)cc1", "values": [{"measurement": "Binding affinity", "setting": "[1]", "value": 0.03, "unit": "%"}, {"measurement": "Binding affinity", "setting": "[2]", "value": 0.004, "unit": "%"}]}, {"smiles": "Oc1ccc(-c2nn3cccnc3c2-c2ccccc2)cc1", "values": [{"measurement": "Binding affinity", "setting": "[1]", "value": 0.05, "unit": "%"}, {"measurement": "Binding affinity", "setting": "[2]", "value": 0.01, "unit": "%"}]}, {"smiles": "Oc1ccc(-c2nn3cccnc3c2-c2ccc(O)cc2)cc1", "values": [{"measurement": "Binding affinity", "setting": "[1]", "value": 0.1, "unit": "%"}, {"measurement": "Binding affinity", "setting": "[2]", "value": 0.004, "unit": "%"}]}, {"smiles": "Oc1ccc(-c2c(-c3ccccc3)nn3cc(O)cnc23)cc1", "values": [{"measurement": "Binding affinity", "setting": "[1]", "value": 0.006, "unit": "%"}]}, {"smiles": "Oc1ccc(-c2nn3cc(O)cnc3c2-c2ccccc2)cc1", "values": [{"measurement": "Binding affinity", "setting": "[1]", "value": 0.01, "unit": "%"}, {"measurement": "Binding affinity", "setting": "[2]", "value": 0.003, "unit": "%"}]}]}
